Data on five compounds can be found in patent US20060252026A1, “Cryopreservation method for bivalve oocytes” (priority 2005, published 2006).

Assay [1] concerns Pacific oyster (Crassostrea gigas) oocytes. Briefly: Post-thaw fertilisation assay of cryopreserved oocytes. Format: cell-based. The note with it: for post-thaw fertilisation rate: Example 2.9, ten percent EG. The procedure:
Cryopreservation straws (0.25 cc, IMV, France) were then loaded with the solution containing oocytes and CPA, sealed with PVC powder and laid flat on a rack. The total time at room temperature was 20 min. Loaded straws were placed into Cryogenesis freezers (Cryologic Pty Ltd, Mt Waverly, Australia) and held at 0° C. for 5 min. […] Following the hold period, the freezers were then programmed to cool at various rates (standard: 1° C. min^-1) to -35° C. at which temperature the straws were plunged into liquid nitrogen and stored. After up to 24 h storage, the straws were thawed by placing into a water bath at 28° C. […] After dilution, the thawed oocytes along with unfrozen oocytes from the same batch (controls) were fertilised using the miniaturised fertilisation assay described previously ([…] Smith, R D Roberts, A R Janke, […] Pugh, S C Webb, N G King, Aquaculture (2004) 242, 271). […] Duplicate assays were conducted on each straw and assays included a negative control where no sperm were added to check for parthenogenetic activation. […] All CPA concentrations are the final post-dilution levels. Fertilisation results from each experiment were used to determine factors to be evaluated in subsequent experiments. […] Each pool comprised oocytes from 4 to 8 oysters. […] Three new pools were selected from 11 available pools for Examples 2.4 to 2.6.

Assay [2] has the same test system. To be noted: Example 2.7.
Experimental: Approximately 2.2 million unfrozen or thawed oocytes from 8 individuals were added to 500 mL of SW and fertilised at a ratio of 100 sperm per oocyte. After a contact time of ˜12 min, the fertilised oocytes were transferred into tanks containing 150 L of SW and 1 mg L^−1 EDTA at 23° C. After 24 h, the tanks were drained through a 45-μm mesh and subsamples taken to determine the percentage of oocytes reaching D-larvae in each treatment.
The number of D-larvae was standardized for each female so that the four rearing tanks (2×cryopreserved and 2×unfrozen) all contained the same number of larvae. The larvae were resuspended in 2.5 L tanks in a continuous exchange larval rearing system and fed a mixed diet of Chaetoceros calcitrans and Isochrisis galbana (A Janke, H Kaspar, N King, S Foster, Abstracts of the World Aquaculture Society Conference, 1st-4th Mar. 2004, Hawaii, World Aquaculture Society, Louisiana State University, Baton Rouge, La., (2004), 312). Tanks were cleaned and larvae screened every second day to remove dead, abnormal or slow-growing larvae. Competent larvae were induced to metamorphose by bath application of 10^−4 M epinephrine (S L Coon, D B Bonar, Journal of Experimental Marine Biology and Ecology, (1985), 94, 211) for 3 to 5 h. […] The number of D-larvae in each treatment that developed to eyed larvae stage and spat was determined. […]
In assay [3] the test system is Pacific oyster oocytes. To be noted: Me2SO as CPA in the presence of trehalose; cited from earlier work.
In assay [4] the test system is Pacific oyster oocytes. To be noted: Me2SO as CPA; cited from earlier work.
In assay [5] the test system is Eastern Oyster (Crassostrea virginica) oocytes. The note with it: Me2SO or sucrose as CPA; cited from earlier work.

Regarding `OCCO` [EG, ethylene glycol], the post-thaw fertilisation stood at 79% in assay [1] (Example 2.10, 10% EG in MQ, thawed in water bath at 3° C.); 71% in assay [1] (Example 2.10, 10% EG in MQ, thawed in water bath at 28° C.); 61% in assay [1] (Example 2.10, 10% EG in MQ, thawed in water bath at 60° C.); 52% in assay [1] (Example 2.10, 10% EG in MQ, thawed in water bath at 90° C.); 5% in assay [1] (Example 2.8, 10% EG in MQ, plunging at −25° C.); 72% in assay [1] (Example 2.8, 10% EG in MQ, plunging at −35° C.). This compound also had a post-thaw fertilisation in assay [1] (Example 2.8, 10% EG in MQ, plunging at −45° C.) of 76%. Besides, the oocyte fertilisation post-thaw result in assay [1] (Example 2.1, 100% EG (so in the source) in MQ with 0.85% w/v PVP, standard freezing/thawing) is “Highest fertilisation rates”; in assay [1] (Example 2.7, 10% EG in MQ, no PVP, −10° C. hold, 0.3° C. min−1 to −35° C., mean±se), 52.1±1.2%. In addition, the “oocyte fertilisation post-thaw, effect of holding temperature” value in assay [1] (Example 2.5, 10% EG in MQ, holding for 5 min at either −10 or −12° C.) is on record as “best results”. The “oocyte fertilisation post-thaw, effect of freezing rate” value in assay [1] (Example 2.6, 10% EG in MQ, slowest post-hold cooling rate (0.3° C. min−1)) is “best results”. Moreover, the post-thaw fertilisation rate in assay [1] (held at −16° C. for 5 min) is 31%; in assay [1] (held at −20° C. for 5 min), 3%. In assay [2] (P=0.126), the “percentage of fertilised oocytes developing to D-larvae, fresh versus cryopreserved” value is “no significant difference”. The “proportion of larvae developing to eyed larvae or spat, fresh versus cryopreserved” value in assay [2] (P=0.516 and 0.418) was “no difference”.
`C[S+](C)[O-]` [Me2SO, dimethyl sulfoxide]: the oocyte fertilisation post-thaw result in assay [1] (Example 2.1, 15% Me2SO in MQ with 0.85% w/v PVP, standard freezing/thawing) was “Highest fertilisation rates”. In assay [3], the “fertilisation achieved with the thawed oocytes” value was “less than 0.5%” and the “thawed oocytes developing to D-larvae” value is recorded as “less than 0.005%”. In addition, the “outcome of cryopreservation attempt” value in assay [4] was “entirely unsuccessful”. In addition, in assay [5], the “fertilisation of oocytes after cryopreservation” value is “none of the oocytes were able to be fertilised” and the “oocytes staining as live after cryopreservation” value is 7%.
Regarding `CO` [methanol], the oocyte fertilisation post-thaw entry in assay [1] (Example 2.1, methanol 2.5, 5, 10% v/v in MQ with 0.85% w/v PVP, standard freezing/thawing) is given as “No oocytes were fertilised”.
Regarding `OC[C@H]1O[C@@](CO)(O[C@H]2O[C@H](CO)[C@@H](O)[C@H](O)[C@H]2O)[C@@H](O)[C@@H]1O` [sucrose], in assay [5], the “fertilisation of oocytes after cryopreservation” value is recorded as “none of the oocytes were able to be fertilised” and the “oocytes staining as live after cryopreservation” value is on record as 7%.
Consider `OC[C@H]1O[C@H](O[C@H]2O[C@H](CO)[C@@H](O)[C@H](O)[C@H]2O)[C@H](O)[C@@H](O)[C@@H]1O` [trehalose], for which the “effect on oocyte fertilisation post-thaw” value in assay [1] (Example 2.2, trehalose above 0.1 M added to 10% EG in MQ) is listed as “significant reduction in fertilisation”.
